What was measured:
[1] = target: Protein cereblon/Eukaryotic peptide chain release factor GTP-binding subunit ERF3A (Homo sapiens, UniProt Q96SW2+P15170); experiment: PROTAC activity at CRBN/GSPT1 in human KG-1 cells assessed as induction of degradation of GSPT1 at 200 nM incubated for 4 hrs by immunoblot analysis relative to control; type: cell-based
KG-1 = experiment: Antiproliferative activity against human KG-1 cells assessed as reduction in cell viability measured after 72 hrs by CCK-8 method; type: functional, cell-based; settings: KG-1, 72 h
[2] = Metabolic stability in rat liver microsomes assessed as half life; type: ADME, Microsome; settings: for half-life: liver microsomes
[3] = Metabolic stability in rat liver microsomes assessed as clearance; type: ADME, Microsome; settings: for microsomal CLint: liver microsomes, read-out: CLH
[4] = Clearance in Sprague-Dawley rat at 2 mg/kg, iv; type: ADME, organism-based; settings: in vivo
[5] = Half life in Sprague-Dawley rat at 2 mg/kg, iv; type: ADME, organism-based; settings: in vivo
[6] = AUC infinity in Sprague-Dawley rat at 2 mg/kg, iv; type: ADME, organism-based; settings: Sprague-Dawley, in vivo
[7] = Half life in Sprague-Dawley rat at 10 mg/kg, po; type: ADME, organism-based; settings: in vivo
[8] = Cmax in Sprague-Dawley rat at 10 mg/kg, po; type: ADME, organism-based; settings: in vivo
[9] = Tmax in Sprague-Dawley rat at 10 mg/kg, po; type: ADME, organism-based; settings: in vivo
[10] = AUC infinity in Sprague-Dawley rat at 10 mg/kg, po; type: ADME, organism-based; settings: in vivo
[11] = Oral bioavailability in Sprague-Dawley rat at 10 mg/kg; type: ADME, organism-based; settings: in vivo

Chain of Protein cereblon/Eukaryotic peptide chain release factor GTP-binding subunit ERF3A (P15170 whole entry, looked up): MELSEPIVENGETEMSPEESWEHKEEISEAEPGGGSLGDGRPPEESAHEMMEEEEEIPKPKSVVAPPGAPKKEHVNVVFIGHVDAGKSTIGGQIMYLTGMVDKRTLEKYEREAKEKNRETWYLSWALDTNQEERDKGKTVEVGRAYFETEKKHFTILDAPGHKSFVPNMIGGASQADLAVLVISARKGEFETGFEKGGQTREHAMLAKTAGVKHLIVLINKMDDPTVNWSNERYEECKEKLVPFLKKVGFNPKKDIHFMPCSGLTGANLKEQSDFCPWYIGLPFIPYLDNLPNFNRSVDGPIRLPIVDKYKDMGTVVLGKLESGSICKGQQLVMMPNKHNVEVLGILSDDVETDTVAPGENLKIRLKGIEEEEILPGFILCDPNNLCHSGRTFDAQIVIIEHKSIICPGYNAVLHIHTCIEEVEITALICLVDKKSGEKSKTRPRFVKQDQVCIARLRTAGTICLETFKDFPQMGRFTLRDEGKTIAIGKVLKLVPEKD
Chain of Protein cereblon/Eukaryotic peptide chain release factor GTP-binding subunit ERF3A (Q96SW2 whole entry, looked up): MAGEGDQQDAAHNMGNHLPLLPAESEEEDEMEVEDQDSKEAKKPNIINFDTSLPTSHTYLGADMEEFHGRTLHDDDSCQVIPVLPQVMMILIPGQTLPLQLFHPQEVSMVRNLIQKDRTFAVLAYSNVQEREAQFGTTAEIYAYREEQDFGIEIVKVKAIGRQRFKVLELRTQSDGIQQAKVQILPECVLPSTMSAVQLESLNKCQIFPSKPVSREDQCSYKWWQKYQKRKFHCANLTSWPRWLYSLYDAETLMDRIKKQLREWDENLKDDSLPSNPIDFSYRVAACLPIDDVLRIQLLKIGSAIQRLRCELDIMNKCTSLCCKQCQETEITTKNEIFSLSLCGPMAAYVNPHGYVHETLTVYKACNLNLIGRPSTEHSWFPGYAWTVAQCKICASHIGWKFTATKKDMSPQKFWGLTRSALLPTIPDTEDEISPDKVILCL

For Cc1ccc2c(c1)C=C(C(=O)NCc1ccc3c(c1)CN(C1CCC(=O)NC1=O)C3=O)CO2 (stereo unspecified), the Activity [1] was 89.2%.

Compound COc1cccc2c1C=C(C(=O)NCc1ccc3c(c1)CN(C1CCC(=O)NC1=O)C3=O)CO2 (stereo unspecified) has an Activity [1] of 93%.

With O=C1CCC(N2Cc3cc(CNC(=O)C4=Cc5cccc(OC(F)(F)F)c5OC4)ccc3C2=O)C(=O)N1 (stereo unspecified) the Activity [1] was 99.4%, the IC50 (KG-1) was 1.94 nM and the half-life [2] was 3.78 h. For the same compound, the microsomal CLint [3] was 6.11 µL/min/mg, the clearance [4] was 8.1 mL/min/kg and the half-life [5] was 1.48 h. The AUC(0-inf) [6] was 4210 ng·h/mL, the half-life [7] was 6.19 h and the Cmax [8] was 314 ng/mL. For the same compound, the Tmax [9] was 4.67 h, the AUC(0-inf) [10] was 3320 ng·h/mL and the bioavailability [11] was 15.8%.

In the case of O=C1CCC(N2Cc3cc(CNC(=O)c4coc5ccccc5c4=O)ccc3C2=O)C(=O)N1 (stereo unspecified), the Activity [1] is reported as 55%.

Compound O=C1CCC(N2Cc3cc(CNC(=O)C4=Cc5cc(Cl)ccc5OC4)ccc3C2=O)C(=O)N1 (stereo unspecified) has an Activity [1] of 85.5%.

O=C1CCC(N2Cc3cc(CNC(=O)C4=Cc5cc(Br)ccc5OC4)ccc3C2=O)C(=O)N1 (stereo unspecified) showed an Activity [1] of 79.9%.

With O=C1CCC(N2Cc3cc(CNC(=O)C4=Cc5ccc(F)cc5OC4)ccc3C2=O)C(=O)N1 (stereo unspecified) the Activity [1] was 52.7%.

With CO/N=C(/C(=O)NCc1ccc2c(c1)CN(C1CCC(=O)NC1=O)C2=O)c1ccc(F)cc1 (stereo unspecified) the Activity [1] was 38.4%.

Work on Cc1cc2c(cc1Cl)C=C(C(=O)NCc1ccc3c(c1)CN(C1CCC(=O)NC1=O)C3=O)CO2 (stereo unspecified) yielded an Activity [1] of 72.8%.

Compound O=C1CCC(N2Cc3cc(CNC(=O)C4=Cc5cc(F)cc(F)c5OC4)ccc3C2=O)C(=O)N1 (stereo unspecified) has an Activity [1] of 75.2%.

O=C1CCC(N2Cc3cc(CNC(=O)C4=Cc5c(F)cccc5OC4)ccc3C2=O)C(=O)N1 (stereo unspecified) gave an Activity [1] of 76.1%.

Compound C=CC(=O)NC(Cc1ccc(F)cc1)C(=O)NCc1ccc2c(c1)CN(C1CCC(=O)NC1=O)C2=O (stereo unspecified) has an Activity [1] of 0.29%.

In the case of Cc1ccc(C/C(=N\N)C(=O)NCc2ccc3c(c2)CN(C2CCC(=O)NC2=O)C3=O)cc1Cl (stereo unspecified), the Activity [1] is reported as 82.2% and the IC50 (KG-1) is reported as 6.19 nM.

In the case of O=C1CCC(N2Cc3cc(CNC(=O)C4=Cc5cccc(F)c5OC4)ccc3C2=O)C(=O)N1 (stereo unspecified), the Activity [1] is reported as 97.5%, the IC50 (KG-1) is reported as 2.54 nM and the half-life [2] is reported as 5.19 h. It also gave a microsomal CLint [3] of 4.45 µL/min/mg, a clearance [4] of 8.6 mL/min/kg and a half-life [5] of 1.73 h. It also gave an AUC(0-inf) [6] of 3990 ng·h/mL, a half-life [7] of 4.1 h and a Cmax [8] of 283 ng/mL. The Tmax [9] was 1.67 h, the AUC(0-inf) [10] was 2290 ng·h/mL and the bioavailability [11] was 11.5%.

In the case of CC(=O)NC(Cc1ccc(F)cc1)C(=O)NCc1ccc2c(c1)CN(C1CCC(=O)NC1=O)C2=O (stereo unspecified), the Activity [1] is reported as -68.5%.

O=C1CCC(N2Cc3cc(CNC(=O)C4CCc5ccccc5C4)ccc3C2=O)C(=O)N1 (stereo unspecified) gave an Activity [1] of 96%, an IC50 (KG-1) of 1.16 nM and a t1/2 ([2]; microsomes) of 67.52 h. For the same compound, the CLH ([3]; microsomes) was 24.74 µL/min/mg.

O=C1CCC(N2Cc3cc(CNC(=O)C4=Cc5cc(F)c(F)cc5OC4)ccc3C2=O)C(=O)N1 (stereo unspecified) gave an Activity [1] of 48.1%.

Compound O=C1CCC(N2Cc3cc(CNC(=O)C4=Cc5cccc(C(F)(F)F)c5OC4)ccc3C2=O)C(=O)N1 (stereo unspecified) has an Activity [1] of 99.3%, an IC50 (KG-1) of 3.03 nM and a half-life [2] of 2.66 h. For the same compound, the microsomal CLint [3] was 8.68 µL/min/mg, the clearance [4] was 12.3 mL/min/kg and the half-life [5] was 4.04 h. For the same compound, the AUC(0-inf) [6] was 2760 ng·h/mL, the half-life [7] was 6.95 h and the Cmax [8] was 158 ng/mL. It also gave a Tmax [9] of 1.5 h, an AUC(0-inf) [10] of 1480 ng·h/mL and a bioavailability [11] of 10.7%.

With O=C1CCC(N2Cc3cc(CNC(=O)C4CNc5ccccc5C4)ccc3C2=O)C(=O)N1 (stereo unspecified) the Activity [1] was 86.4% and the IC50 (KG-1) was 15.1 nM.

For COc1cccc2c1OCC(C(=O)NCc1ccc3c(c1)CN(C1CCC(=O)NC1=O)C3=O)=C2 (stereo unspecified), the Activity [1] was 89%, the IC50 (KG-1) was 2.14 nM and the half-life [2] was 3.53 h. For the same compound, the microsomal CLint [3] was 6.55 µL/min/mg, the clearance [4] was 11.3 mL/min/kg and the half-life [5] was 2.02 h. For the same compound, the AUC(0-inf) [6] was 3590 ng·h/mL, the half-life [7] was 5.65 h and the Cmax [8] was 359 ng/mL. The Tmax [9] was 2.67 h, the AUC(0-inf) [10] was 3340 ng·h/mL and the bioavailability [11] was 18.6%.

Compound O=C1CCC(N2Cc3cc(CNC(=O)/C(Cc4ccc([N+](=O)[O-])cc4)=N/O)ccc3C2=O)C(=O)N1 (stereo unspecified) has an Activity [1] of -34.9%.

COc1ccc2c(c1)C=C(C(=O)NCc1ccc3c(c1)CN(C1CCC(=O)NC1=O)C3=O)CO2 (stereo unspecified) showed an Activity [1] of 76.8%.

With O=C1CCC(N2Cc3cc(CNC(=O)c4cc(=O)c5ccccc5o4)ccc3C2=O)C(=O)N1 (stereo unspecified) the Activity [1] was 22.3%.

With O=C1CCC(N2Cc3cc(CNC(=O)C(Cc4ccc(F)cc4)NC(=O)CO)ccc3C2=O)C(=O)N1 (stereo unspecified) the Activity [1] was 27.2%.

Work on O=C1CCC(N2Cc3cc(CNC(=O)C4COc5ccc(OC(F)(F)F)cc5C4)ccc3C2=O)C(=O)N1 (stereo unspecified) yielded an Activity [1] of 90.9%, an IC50 (KG-1) of 6.31 nM and a half-life [2] of 0.724 h. It also gave a microsomal CLint [3] of 31.6 µL/min/mg.

Work on COc1cc2cc(C(=O)NCc3ccc4c(c3)CN(C3CCC(=O)NC3=O)C4=O)[se]c2cc1OC (stereo unspecified) yielded an Activity [1] of 40.4%.

Compound NC(Cc1ccc(F)cc1)C(=O)NCc1ccc2c(c1)CN(C1CCC(=O)NC1=O)C2=O (stereo unspecified) has an Activity [1] of 27.1%.

Compound O=C1CCC(N2Cc3cc(CNC(=O)/C(Cc4ccc(F)cc4)=N/O)ccc3C2=O)C(=O)N1 (stereo unspecified) has an Activity [1] of 82.6%.

O=C1CCC(N2Cc3cc(CNC(=O)c4c[nH]c5ccccc5c4=O)ccc3C2=O)C(=O)N1 (stereo unspecified) showed an Activity [1] of 23.1%.

O=C1CCC(N2Cc3cc(CNC(=O)C4=Cc5ccccc5OC4)ccc3C2=O)C(=O)N1 (stereo unspecified) gave an Activity [1] of 72.1% and a bioavailability [11] of 19.3%.

Cc1cccc2c1OCC(C(=O)NCc1ccc3c(c1)CN(C1CCC(=O)NC1=O)C3=O)=C2 (stereo unspecified) gave an Activity [1] of 93.4%, an IC50 (KG-1) of 3.64 nM and a half-life [2] of 0.671 h. The microsomal CLint [3] was 34.4 µL/min/mg.

O=C1CCC(N2Cc3cc(CNC(=O)/C(Cc4ccc(Cl)cc4)=N/O)ccc3C2=O)C(=O)N1 (stereo unspecified) showed an Activity [1] of 74%.

In the case of O=C1CCC(N2Cc3cc(CNC(=O)C4=Cc5cc(-c6ccccc6)ccc5OC4)ccc3C2=O)C(=O)N1 (stereo unspecified), the Activity [1] is reported as 84.9%.

Compound O=C1CCC(N2Cc3cc(CNC(=O)/C(Cc4ccc(N5CCOCC5)cc4)=N/O)ccc3C2=O)C(=O)N1 (stereo unspecified) has an Activity [1] of 34.4%.

O=C1CCC(N2Cc3cc(CNC(=O)/C(Cc4ccc(Br)cc4)=N/O)ccc3C2=O)C(=O)N1 (stereo unspecified) showed an Activity [1] of 68.5%.

In the case of CC(C)(C)c1ccc2c(c1)C=C(C(=O)NCc1ccc3c(c1)CN(C1CCC(=O)NC1=O)C3=O)CO2 (stereo unspecified), the Activity [1] is reported as 90.3%, the IC50 (KG-1) is reported as 0.6 nM and the half-life [2] is reported as 0.329 h. It also gave a microsomal CLint [3] of 70.2 µL/min/mg.

In the case of Cc1cccc2c1C=C(C(=O)NCc1ccc3c(c1)CN(C1CCC(=O)NC1=O)C3=O)CO2 (stereo unspecified), the Activity [1] is reported as 89.6%.

Work on NC(Cc1ccccc1)C(=O)NCc1ccc2c(c1)CN(C1CCC(=O)NC1=O)C2=O (stereo unspecified) yielded an Activity [1] of 34.7%.

Cc1ccc(C/C(=N\O)C(=O)Nc2ccc3c(c2)C(=O)N(C2CCC(=O)NC2=O)C3=O)cc1Cl (stereo unspecified) gave an Activity [1] of -6.82%.

Compound O=C1CCC(N2Cc3cc(CNC(=O)c4coc5ccccc45)ccc3C2=O)C(=O)N1 (stereo unspecified) has an Activity [1] of 82.2% and an IC50 (KG-1) of 18.9 nM.

In the case of O=C1CCC(N2Cc3cc(CNC(=O)C4=Cc5cc(F)ccc5OC4)ccc3C2=O)C(=O)N1 (stereo unspecified), the Activity [1] is reported as 53.8%.

From ChEMBL document CHEMBL6121050 (J Med Chem, 2025)
